# Tested on: beta-TC6 cells
# Experiment: Insulin HTRF assay (relative activity Ar) in beta-TC6 cells
# Type: cell-based, mouse
# Settings: Mus musculus, Beta-TC6, 4 h, insulin HTRF, supernatant of beta-TC6 cells, incubation with test compound at 37°C for 2, 3, 4h; read-out: Ar (relative activity)
# Source text: For further screening of compounds derived from compounds described above for their ability to regulate insulin release an insulin HTRF® (Homogeneous Time-Resolved Fluorescence; Cisbio International, France) was used. This assay is based on two antibodies against insulin binding to different epitopes of insulin. One of these antibodies is coupled to Europium (Ab-Eu-Cryptate) and the other one to the fluorophore XL665 (Ab-XL665). If the insulin is secreted into the supernatant of cell culture, both antibodies can bind to insulin and come therefore into close proximity, which allows upon excitation that energy transfer between (FRET) the long-life fluorescent donor Europium (cryptate) and the acceptors XL665. FRET increases proportionally with insulin concentration.
# The automated assay protocol is as follows: • On day 1, 15k beta-TC6 cells per well were seeded for 24 or 48 h in 50 µL complete medium. On day 2 or respective on day 3, the medium is removed and cells are washed with 60 µL 1xPBS and 20 µL induction buffer is added using BioTek washer. Subsequently, 10 µL Sunitininb (5 -µM f.c.) or the test compound in induction buffer; 0.5% f.c. DMSO (CyBi-well) is transferred to the cells. The cells are then incubated at 37°C for 2, 3, 4h.
# First 10 µL supernatant is transferred from the cell plates in HTRF plates (CyBi-well). 10 µL of 0, 1, 2, and 4 ng/ml insulin standard controls in assay medium is used as a control. To each well 10 µL of combined 1:25 Ab-XL665 (Acc) and 1:20 Ab-Eu-Cryptate (WellMate) are added and incubated for 120 min at RT in the dark. Finally HTRF is measured on ViewLux ultra high throughput microplate imager (PerkinElmer).
# The evaluation software DataFactoty derives relative activities Ar according to the following equation: Ar = (V-R(0%control))/(R(100%control) -R0%control)) × 100 [formula]
# The activity of the compounds was classified according to their Ar (relative activity) into the following ranges: […]
row,SMILES,Emax
1,"COc1ccc(Nc2cc3[nH]c(-c4cccc(N)c4)cc3cn2)cn1 [Compound 1, 2-(3-aminophenyl)-N-(6-methoxy-3-pyridyl)-1H-pyrrolo[3,2-c]pyridin-6-amine]",50 to 100%
2,"Nc1cccc(-c2cc3cnc(Nc4cccnc4)cc3[nH]2)c1 [Compound 2, 2-(3-aminophenyl)-N-(3-pyridyl)-1H-pyrrolo[3,2-c]pyridin-6-amine]",30 to 50%
3,"CN1CCN(c2cc3[nH]c(-c4cccc(C(F)(F)F)c4)cc3cn2)CC1 [Compound 4, 6-(4-methylpiperazin-1-yl)-2-[3-(trifluoromethyl)phenyl]-1H-pyrrolo[3,2-c]pyridine]",30 to 50%
4,"CS(=O)(=O)Nc1cccc(Nc2cc3[nH]c(-c4cccc(C(F)(F)F)c4)cc3cn2)c1 [Compound 5, N-[3-[[2-[3-(trifluoromethyl)phenyl]-1H-pyrrolo[3,2-c]pyridin-6-yl]amino]phenyl]methanesulfonamide]",0 to 30%
5,"COc1ccc(Nc2cc3[nH]c(-c4cccc(F)c4)cc3cn2)cc1OC [Compound 7, N-(3,4-dimethoxyphenyl)-2-(3-fluorophenyl)-1H-pyrrolo[3,2-c]pyridin-6-amine]",50 to 100%
6,"COc1ccc(Nc2cc3[nH]c(-c4cccc(F)c4)cc3cn2)cn1 [Compound 8, 2-(3-fluorophenyl)-N-(6-methoxy-3-pyridyl)-1H-pyrrolo[3,2-c]pyridin-6-amine]",30 to 50%
7,"Fc1cccc(-c2cc3cnc(Nc4ccc(F)c(Cl)c4)cc3[nH]2)c1 [Compound 9, N-(3-chloro-4-fluoro-phenyl)-2-(3-fluorophenyl)-1H-pyrrolo[3,2-c]pyridin-6-amine]",0 to 30%
8,"Oc1cccc(Nc2cc3[nH]c(-c4cccc(F)c4)cc3cn2)c1 [Compound 10, 3-[[2-(3-fluorophenyl)-1H-pyrrolo[3,2-c]pyridin-6-yl]amino]phenol]",50 to 100%
9,"COc1ccc(Nc2cc3[nH]c(-c4cccc(F)c4)cc3cn2)cc1O [Compound 11, 5-[[2-(3-fluorophenyl)-1H-pyrrolo[3,2-c]pyridin-6-yl]amino]-2-methoxy-phenol]",30 to 50%
10,"Fc1cccc(-c2cc3cnc(N4CCOCC4)cc3[nH]2)c1 [Compound 12, 4-[2-(3-fluorophenyl)-1H-pyrrolo[3,2-c]pyridin-6-yl]morpholine]",> 100%
11,"CS(=O)(=O)Nc1cccc(Nc2cc3[nH]c(-c4cccc(F)c4)cc3cn2)c1 [Compound 13, N-[3-[[2-(3-fluorophenyl)-1H-pyrrolo[3,2-c]pyridin-6-yl]amino]phenyl]methanesulfonamide]",50 to 100%
12,"CN(C)C(=O)c1ccc(Nc2cc3[nH]c(-c4cccc(F)c4)cc3cn2)cc1 [Compound 14, 4-[[2-(3-fluorophenyl)-1H-pyrrolo[3,2-c]pyridin-6-yl]amino]-N,N-dimethyl-benzamide]",30 to 50%
13,"CC(=O)Nc1cccc(Nc2cc3[nH]c(-c4cccc(F)c4)cc3cn2)c1 [Compound 15, N-[3-[[2-(3-fluorophenyl)-1H-pyrrolo[3,2-c]pyridin-6-yl]amino]phenyl]acetamide]",30 to 50%
14,"CS(=O)(=O)c1ccc(Nc2cc3[nH]c(-c4cccc(F)c4)cc3cn2)cc1 [Compound 16, 2-(3-fluorophenyl)-N-(4-methylsulfonylphenyl)-1H-pyrrolo[3,2-c]pyridin-6-amine]",30 to 50%
15,"Cn1c(-c2cccc(F)c2)cc2cnc(Nc3ccc(O)cc3)cc21 [Compound 17, 4-[[2-(3-fluorophenyl)-1-methyl-pyrrolo[3,2-c]pyridin-6-yl]amino]phenol]",50 to 100%
16,"COc1cc(Nc2cc3[nH]c(-c4ccc(C(=O)N(C)C)cc4)cc3cn2)cc(OC)c1OC [Compound 18, N,N-dimethyl-4-[6-(3,4,5-trimethoxyanilino)-1H-pyrrolo[3,2-c]pyridin-2-yl]benzamide]",50 to 100%
17,"COc1cccc(Nc2cc3[nH]c(-c4ccc(C(=O)N(C)C)cc4)cc3cn2)c1 [Compound 19, 4-[6-(3-methoxyanilino)-1H-pyrrolo[3,2-c]pyridin-2-yl]-N,N-dimethyl-benzamide]",50 to 100%
18,"COc1ccc(Nc2cc3[nH]c(-c4ccc(C(=O)N(C)C)cc4)cc3cn2)c(OC)c1 [Compound 20, 4-[6-(2,4-dimethoxyanilino)-1H-pyrrolo[3,2-c]pyridin-2-yl]-N,N-dimethyl-benzamide]",50 to 100%

row,SMILES,Emax
1,"COc1ccc(Nc2cc3[nH]c(-c4ccc(C(=O)N(C)C)cc4)cc3cn2)cc1OC [Compound 21, 4-[6-(3,4-dimethoxyanilino)-1H-pyrrolo[3,2-c]pyridin-2-yl]-N,N-dimethyl-benzamide]",50 to 100%
2,"CN(C)C(=O)c1ccc(-c2cc3cnc(Nc4cccnc4)cc3[nH]2)cc1 [Compound 22, N,N-dimethyl-4-[6-(3-pyridylamino)-1H-pyrrolo[3,2-c]pyridin-2-yl]benzamide]",> 100%
3,"CN(C)C(=O)c1ccc(-c2cc3cnc(Nc4cccc(Cl)c4)cc3[nH]2)cc1 [Compound 23, 4-[6-(3-chloroanilino)-1H-pyrrolo[3,2-c]pyridin-2-yl]-N,N-dimethyl-benzamide]",30 to 50%
4,"CN(C)C(=O)c1ccc(-c2cc3cnc(Nc4ccccc4)cc3[nH]2)cc1 [Compound 24, 4-(6-anilino-1 H-pyrrolo[3,2-c]pyridin-2-yl)-N,N-dimethyl-benzamide]",50 to 100%
5,"CN(C)C(=O)c1ccc(-c2cc3cnc(Nc4ccc(Oc5ccccc5)cc4)cc3[nH]2)cc1 [Compound 25, N,N-dimethyl-4-[6-(4-phenoxyanilino)-1H-pyrrolo[3,2-c]pyridin-2-yl]benzamide]",0 to 30%
6,"CN1CCN(c2ccc(Nc3cc4[nH]c(-c5ccc(C(=O)N(C)C)cc5)cc4cn3)cc2)CC1 [Compound 26, N,N-dimethyl-4-[6-[4-(4-methylpiperazin-1-yl)anilino]-1H-pyrrolo[3,2-c]pyridin-2-yl]benzamide]",50 to 100%
7,"CN(C)C(=O)c1ccc(-c2cc3cnc(Nc4cccc(N(C)C)c4)cc3[nH]2)cc1 [Compound 27, 4-[6-[3-(dimethylamino)anilino]-1H-pyrrolo[3,2-c]pyridin-2-yl]-N,N-dimethyl-benzamide]",50 to 100%
8,"Cc1cccc(Nc2cc3[nH]c(-c4ccc(C(=O)N(C)C)cc4)cc3cn2)c1 [Compound 28, N,N-dimethyl-4-[6-(3-methylanilino)-1H-pyrrolo[3,2-c]pyridin-2-yl]benzamide]",50 to 100%
9,"COC(=O)c1ccc(Nc2cc3[nH]c(-c4ccc(C(=O)N(C)C)cc4)cc3cn2)cc1 [Compound 29, methyl 4-[[2-[4-(dimethylcarbamoyl)phenyl]-1H-pyrrolo[3,2-c]pyridin-6-yl]amino]benzoate]",30 to 50%
10,"CN(C)C(=O)c1ccc(-c2cc3cnc(Nc4cccc(S(C)(=O)=O)c4)cc3[nH]2)cc1 [Compound 30, N,N-dimethyl-4-[6-(3-methylsulfonylanilino)-1H-pyrrolo[3,2-c]pyridin-2-yl]benzamide]",50 to 100%
11,"CN(C)C(=O)c1ccc(-c2cc3cnc(Nc4cccc(O)c4)cc3[nH]2)cc1 [Compound 31, 4-[6-(3-hydroxyanilino)-1H-pyrrolo[3,2-c]pyridin-2-yl]-N,N-dimethyl-benzamide]",> 100%
12,"CN(C)C(=O)c1ccc(-c2cc3cnc(Nc4ccc(C(F)(F)F)cc4)cc3[nH]2)cc1 [Compound 32, N,N-dimethyl-4-[6-[4-(trifluoromethyl)anilino]-1H-pyrrolo[3,2-c]pyridin-2-yl]benzamide]",30 to 50%
13,"CN(C)C(=O)c1ccc(-c2cc3cnc(Nc4cccc(OC(F)(F)F)c4)cc3[nH]2)cc1 [Compound 33, N,N-dimethyl-4-[6-[3-(trifluoromethoxy)anilino]-1H-pyrrolo[3,2-c]pyridin-2-yl]benzamide]",30 to 50%
14,"CN(C)C(=O)c1ccc(-c2cc3cnc(Nc4ccc(OC(F)(F)F)cc4)cc3[nH]2)cc1 [Compound 34, N,N-dimethyl-4-[6-[4-(trifluoromethoxy)anilino]-1H-pyrrolo[3,2-c]pyridin-2-yl]benzamide]",0 to 30%
15,"CN(C)C(=O)c1ccc(-c2cc3cnc(Nc4cccc(Oc5ccccc5)c4)cc3[nH]2)cc1 [Compound 35, N,N-dimethyl-4-[6-(3-phenoxyanilino)-1H-pyrrolo[3,2-c]pyridin-2-yl]benzamide]",0 to 30%
16,"CC(C)c1cccc(Nc2cc3[nH]c(-c4ccc(C(=O)N(C)C)cc4)cc3cn2)c1 [Compound 36, 4-[6-(3-isopropylanilino)-1H-pyrrolo[3,2-c]pyridin-2-yl]-N,N-dimethyl-benzamide]",0 to 30%
17,"CN(C)C(=O)c1ccc(-c2cc3cnc(Nc4ccccc4Cl)cc3[nH]2)cc1 [Compound 37, 4-[6-(2-chloroanilino)-1H-pyrrolo[3,2-c]pyridin-2-yl]-N,N-dimethyl-benzamide]",30 to 50%
18,"CC(C)c1ccc(Nc2cc3[nH]c(-c4ccc(C(=O)N(C)C)cc4)cc3cn2)cc1 [Compound 38, 4-[6-(4-isopropylanilino)-1H-pyrrolo[3,2-c]pyridin-2-yl]-N,N-dimethyl-benzamide]",0 to 30%
